Data taken from US20210145802A1, “THERAPY FOR OPHTHALMOLOGICAL CONDITIONS” (WREN THERAPEUTICS LIMITED, priority 2018, published 2021).

Molecular target: T1, Aβ42 (Homo sapiens, UniProt P05067)
T1 construct: […]; made in house; host or cells: E. coli BL21 Gold (DE3)
Assay: ThT kinetic assay of Aβ42 fibril formation (unseeded)
Assay type: biochemical
Settings: 2 μM Aβ42; 5× drug:protein concentration
Excerpt: The recombinant Aβ(M1-42) peptide ([…]-SNKGAIIGLMVGGVVIA [SEQ ID NO: 1]), here called Aβ42, was expressed in the E. coli BL21 Gold (DE3) strain (Stratagene, CA, U.S.A.) and purified as described previously with slight modifications. Briefly, the purification procedure involved sonication of E. coli cells, dissolution of inclusion bodies in 8 M urea, and ion exchange in batch mode on diethylaminoethyl cellulose resin and lyophylization. The lyophilized fractions were further purified using Superdex 75 HR 26/60 column (GE Healthcare, Buckinghamshire, U.K.) and eluates were analyzed using SDS-PAGE for the presence of the desired protein product. The fractions containing the recombinant protein were combined, frozen using liquid nitrogen, and lyophilized again.
Except for Netoglitazone, which was custom synthesised by GVK BIO, all small molecules were purchased with a purity greater than 99%. Small molecules were first solubilized in 100% DMSO to a concentration of 5 mM, and then diluted in the peptide solution to reach a final DMSO concentration of maximum 1-3%. We verified that the addition of DMSO in the reaction mixture has no effect on Aβ42 aggregation.
Solutions of monomeric peptides were prepared by dissolving the lyophilized Aβ42 peptide in 6 M GuHCl. Monomeric forms were purified from potential oligomeric species and salt using a Superdex 75 10/300 GL column (GE Healthcare) at a flowrate of 0.5 mL/min, and were eluted in 20 mM sodium phosphate buffer, pH 8 supplemented with 200 μM EDTA and 0.02% NaN3. The centre of the peak was collected, and the peptide concentration was determined from the absorbance of the integrated peak area using ε280=1490 L mol^−1 cm^−1. The obtained monomer was diluted with buffer to the desired concentration and supplemented with 20 μM Thioflavin T (ThT) from a 1 mM stock. All samples were prepared in low binding Eppendorf tubes on ice using careful pipetting to avoid introduction of air bubbles. Each sample was then pipetted into multiple wells of a 96-well half-area, low-binding, clear bottom and PEG coating plate (Corning 3881), 80 μL per well. Aβ42 kinetics have been performed in the absence or the presence of Netoglitazone, Mitoglitazone, Rosiglotazone, Rivoglitazone, Pioglitazone, Ciglitazone, Englitazone, Darglitazone, Troglitazone and B alaglitazone.

T1 sequence (P05067 671-713): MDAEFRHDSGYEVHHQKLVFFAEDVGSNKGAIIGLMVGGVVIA

Compound | delay of Aβ42 aggregation
Cc1oc(-c2ccccc2)nc1CCC(=O)c1ccc(CC2SC(=O)NC2=O)cc1 (stereo not shown) [Darglitazone] | observed to delay
CCc1ccc(C(=O)COc2ccc(CC3SC(=O)NC3=O)cc2)nc1 (stereo not shown) [Mitoglitazone] | little to no delay
Cn1c(COc2ccc(CC3SC(=O)NC3=O)cc2)nc2ccccc2c1=O (stereo not shown) [Balaglitazone] | little to no delay
COc1ccc2nc(COc3ccc(CC4SC(=O)NC4=O)cc3)n(C)c2c1 (stereo not shown) [Rivoglitazone] | little to no delay
